# Assay results from BindingDB's records for doi:10.1016/j.bmcl.2006.01.056 (Bristol-Myers Squibb, 2006).
# Target: T1, Kinesin-like protein KIF11 (Homo sapiens, UniProt P52732)
# T1 sequence (P52732 whole entry): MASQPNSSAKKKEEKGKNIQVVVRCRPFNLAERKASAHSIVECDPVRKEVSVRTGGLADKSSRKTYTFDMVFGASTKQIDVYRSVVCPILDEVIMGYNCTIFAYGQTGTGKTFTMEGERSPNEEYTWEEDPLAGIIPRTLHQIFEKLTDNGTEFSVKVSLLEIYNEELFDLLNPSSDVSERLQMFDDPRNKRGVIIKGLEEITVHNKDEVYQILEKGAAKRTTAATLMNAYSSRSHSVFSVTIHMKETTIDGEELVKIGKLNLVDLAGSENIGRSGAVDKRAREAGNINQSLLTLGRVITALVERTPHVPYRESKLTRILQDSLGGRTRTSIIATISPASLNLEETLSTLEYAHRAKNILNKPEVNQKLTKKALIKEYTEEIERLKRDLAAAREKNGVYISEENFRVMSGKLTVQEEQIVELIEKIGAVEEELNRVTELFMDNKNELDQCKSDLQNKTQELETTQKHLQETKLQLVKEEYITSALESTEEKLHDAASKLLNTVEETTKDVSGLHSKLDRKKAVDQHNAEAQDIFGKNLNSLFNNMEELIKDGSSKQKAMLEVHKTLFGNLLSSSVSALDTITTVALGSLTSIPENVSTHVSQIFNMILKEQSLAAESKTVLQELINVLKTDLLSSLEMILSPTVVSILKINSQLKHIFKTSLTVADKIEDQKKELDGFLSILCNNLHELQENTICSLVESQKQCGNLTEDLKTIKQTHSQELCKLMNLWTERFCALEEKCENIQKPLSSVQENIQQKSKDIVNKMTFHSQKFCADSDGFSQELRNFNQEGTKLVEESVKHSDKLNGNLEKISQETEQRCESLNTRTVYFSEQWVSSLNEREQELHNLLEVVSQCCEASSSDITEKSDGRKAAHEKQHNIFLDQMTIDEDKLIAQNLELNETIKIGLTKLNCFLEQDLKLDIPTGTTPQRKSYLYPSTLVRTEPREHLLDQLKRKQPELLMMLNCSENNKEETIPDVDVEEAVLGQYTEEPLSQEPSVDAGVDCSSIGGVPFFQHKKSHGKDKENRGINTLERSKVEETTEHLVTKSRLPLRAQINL
# Test: Microtubule-Activated Eg5 ATPase Assay
# Method: ATPase assays with Eg5 motor domain protein were performed using Kinase-Glo Luminescent Kit as described by the manufacturer (Promega).
smiles,measurement,value
"CN(C)C(=O)N1Cc2c(ccc3ccccc23)C(c2cccc(O)c2)C1 (stereo unspecified) [6-(3-hydroxyphenyl)-N,N-dimethyl-4-azatricyclo[8.4.0.0^{2,7}]tetradeca-1(10),2(7),8,11,13-pentaene-4-carboxamide]",IC50,0.477 µM
